Data from PubChem BioAssay (NCI).
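Step 1: Grow cells in 96-well plates. Step 2: Expose to compound for 48 hours at 5 concentrations. Step 3: Interpolate endpoints linearly; if unreached, use highest concentration. TGI is the concentration that stops growth completely.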

Columns and labels:
Experiment in all cases: NCI tumour cell line growth inhibition, 48 h
[1] = tested on: SK-MEL-28 melanoma
[2] = tested on: NCI-H522 lung
[3] = tested on: NCI-H226 lung
[4] = tested on: 786-0 renal
[5] = tested on: M14 melanoma
[6] = tested on: HCC-2998 colon
[7] = tested on: MDA-MB-231 breast
[8] = tested on: HOP-62 NSCLC
[9] = tested on: HT29 colon
[10] = tested on: HCT-15 colon
[11] = tested on: BT-549 breast
[12] = tested on: MALME-3M melanoma
[13] = tested on: MCF7 breast
[14] = tested on: SK-MEL-5 melanoma
[15] = tested on: SW-620 colon
[16] = tested on: HL-60(TB) leukemia
[17] = tested on: NCI-H460 lung
[18] = tested on: KM12 colon
[19] = tested on: LOX IMVI melanoma
[20] = tested on: SNB-75 CNS
[21] = tested on: DU-145 prostate
[22] = tested on: K-562 leukemia
[23] = tested on: TK-10 renal
[24] = tested on: U251 CNS
[25] = tested on: RPMI-8226 leukemia
[26] = tested on: UO-31 renal
[27] = tested on: A498 renal
[28] = tested on: OVCAR-4 ovarian
[29] = tested on: OVCAR-5 ovarian
[30] = tested on: IGROV1 ovarian
[31] = tested on: RXF 393 renal
[32] = tested on: SR leukemia
[33] = tested on: SF-268 CNS
[34] = tested on: OVCAR-8 ovarian
[35] = tested on: NCI-H23 lung
[36] = tested on: SNB-19 CNS
[37] = tested on: MDA-N
[38] = tested on: OVCAR-3 ovarian
[39] = tested on: T-47D breast
[40] = tested on: SN12C renal
[41] = tested on: ACHN renal
[42] = tested on: CCRF-CEM leukemia
[43] = tested on: HCT-116 colon
[44] = tested on: COLO 205 colon
[45] = tested on: MDA-MB-435
[46] = tested on: MOLT-4 leukemia
[47] = tested on: SK-OV-3 ovarian
[48] = tested on: UACC-62 melanoma
[49] = tested on: HS 578T breast
[50] = tested on: CAKI-1 renal
[51] = tested on: SF-295 CNS
[52] = tested on: NCI/ADR-RES ovarian
[53] = tested on: A549 NSCLC
[54] = tested on: EKVX NSCLC
[55] = tested on: PC-3 prostate
[56] = tested on: HOP-92 NSCLC

With `CC(C)(C)OC(=O)C1CCC/C1=N/Nc1ccc([N+](=O)[O-])cc1[N+](=O)[O-]` (stereo unspecified) the TGI [1] was over 100 µM, the TGI [2] was over 100 µM and the TGI [3] was over 100 µM. It also gave a TGI [4] of over 100 µM, a TGI [5] of over 100 µM and a TGI [6] of over 100 µM. The TGI [7] was over 100 µM, the TGI [8] was over 100 µM and the TGI [9] was over 100 µM. For the same compound, the TGI [10] was over 100 µM, the TGI [11] was 93.2 µM and the TGI [12] was over 100 µM. The TGI [13] was over 100 µM, the TGI [14] was 29.3 µM and the TGI [15] was over 100 µM. For the same compound, the TGI [16] was over 100 µM, the TGI [17] was over 100 µM and the TGI [18] was over 100 µM. It also gave a TGI [19] of over 100 µM, a TGI [20] of 73.9 µM and a TGI [21] of over 100 µM. It also gave a TGI [22] of over 100 µM, a TGI [23] of over 100 µM and a TGI [24] of 56.1 µM. It also gave a TGI [25] of over 100 µM, a TGI [26] of over 100 µM and a TGI [27] of 65.4 µM. For the same compound, the TGI [28] was over 100 µM, the TGI [29] was over 100 µM and the TGI [30] was over 100 µM. The TGI [31] was over 100 µM, the TGI [32] was over 100 µM and the TGI [33] was over 100 µM. For the same compound, the TGI [34] was over 100 µM, the TGI [35] was 63.5 µM and the TGI [36] was over 100 µM. It also gave a TGI [37] of over 100 µM, a TGI [38] of over 100 µM and a TGI [39] of 88.1 µM. The TGI [40] was over 100 µM, the TGI [41] was over 100 µM and the TGI [42] was over 100 µM. It also gave a TGI [43] of 78.5 µM, a TGI [44] of over 100 µM and a TGI [45] of 53.2 µM. It also gave a TGI [46] of over 100 µM, a TGI [47] of over 100 µM and a TGI [48] of over 100 µM. For the same compound, the TGI [49] was over 100 µM, the TGI [50] was over 100 µM and the TGI [51] was 88.9 µM. It also gave a TGI [52] of over 100 µM, a TGI [53] of over 100 µM and a TGI [54] of 89.9 µM. It also gave a TGI [55] of over 100 µM and a TGI [56] of over 100 µM.
